molecular target: MMP-13 (Homo sapiens, UniProt P45452); experiment: EnzoLyte 520 Generic MMP Assay Kit, 5-FAM/QXL520 FRET peptide substrate; type: biochemical
Source text: The EnzoLyte™ 520 Generic MMP Assay Kit (AnaSpec Inc.) can detect the activity of several MMPs including MMP-1, 2, 3, 7, 8, 9, 13, and 14. This kit uses a 5-FAM/QXL™520 fluorescence resonance energy transfer (FRET) peptide as an MMP substrate.

Row | SMILES | IC50 [nM]
1 | CNC(=O)[C@@H](NC(=O)c1ccc(-c2ccc(NC(=O)c3cncc(C)c3)cc2)o1)C1CCCCC1 [N-[4-(5-{[(1S)-1-cyclohexyl-2-(methylamino)-2-oxoethyl]carbamoyl}furan-2-yl)phenyl]-5-methylpyridine-3-carboxamide] | 150
2 | CNC(=O)[C@@H](NC(=O)c1ccc(-c2ccc(NC(=O)c3cn4cccc(C)c4n3)cc2)o1)C1CCCCC1 [N-[4-(5-{[(1S)-1-cyclohexyl-2-(methylamino)-2-oxoethyl]carbamoyl}furan-2-yl)phenyl]-8-methylimidazo[1,2-a]pyridine-2-carboxamide] | 99
3 | CNC(=O)[C@@H](NC(=O)c1ccc(-c2ccc(NC(=O)c3cn4ccccc4n3)cc2)o1)C1CCCCC1 [N-[4-(5-{[(1S)-1-cyclohexyl-2-(methylamino)-2-oxoethyl]carbamoyl}furan-2-yl)phenyl]imidazo[1,2-a]pyridine-2-carboxamide] | 109
4 | CNC(=O)[C@@H](NC(=O)c1ccc(-c2ccc(NC(=O)c3cccc(C)n3)cc2)o1)C1CC1 [N-[4-(5-{[(1S)-1-cyclopropyl-2-(methylamino)-2-oxoethyl]carbamoyl}furan-2-yl)phenyl]-6-methylpyridine-2-carboxamide] | 69
5 | CNC(=O)[C@@H](NC(=O)c1ccc(-c2ccc([N+](=O)[O-])cc2)o1)C1CCCCC1 [N-[(1S)-1-cyclohexyl-2-(methylamino)-2-oxoethyl)-5-(4-nitrophenyl)furan-2-carboxamide] | 470
6 | CNC(=O)[C@@H](NC(=O)c1ccc(-c2ccc([N+](=O)[O-])cn2)o1)C1CCCCC1 [N-[(1S)-1-cyclohexyl-2-(methylamino)-2-oxoethyl)-5-(5-nitropyridin-2-yl)furan-2-carboxamide] | 74
7 | CNC(=O)[C@@H](NC(=O)c1ccc(-c2cccc(CNC(=O)C(C)C)c2)o1)C1CCCCC1 [N-[(1S)-1-cyclohexyl-2-(methylamino)-2-oxoethyl]-5-(3-{[(2-methylpropanoyl)amino]methyl}phenyl)furan-2-carboxamide] | 157
8 | CNC(=O)[C@@H](NC(=O)c1ccc(-c2cccc(CNC(=O)C3CC3)c2)o1)C1CCCCC1 [N-[(1S)-1-cyclohexyl-2-(methylamino)-2-oxoethyl]-5-(3-{[(cyclopropylcarbonyl)amino]methyl}phenyl)furan-2-carboxamide] | 397
9 | CNC(=O)[C@@H](NC(=O)c1ccc(-c2cccc(CNC(=O)c3ccco3)c2)o1)C1CCCCC1 [N-[(1S)-1-cyclohexyl-2-(methylamino)-2-oxoethyl]-5-(3-{[(furan-2-ylcarbonyl)amino]methyl}phenyl)furan-2-carboxamide] | 75
10 | CNC(=O)[C@@H](NC(=O)c1ccc(-c2cccc(CNC(=O)NC(C)C)c2)o1)C1CCCCC1 [N-[(1S)-1-cyclohexyl-2-(methylamino)-2-oxoethyl]-5-(3-{[(propan-2-ylcarbamoyl)amino]methyl}phenyl)furan-2-carboxamide] | 205
11 | CCOc1ccc(-c2ccc(C(=O)N[C@H](C(=O)NC)C3CCCCC3)o2)cc1 [N-[(1S)-1-cyclohexyl-2-(methylamino)-2-oxoethyl]-5-(4-ethoxyphenyl)furan-2-carboxamide] | 270
12 | CCc1ccc(-c2ccc(C(=O)N[C@H](C(=O)NC)C3CCCCC3)o2)cc1 [N-[(1S)-1-cyclohexyl-2-(methylamino)-2-oxoethyl]-5-(4-ethylphenyl)furan-2-carboxamide] | 315
13 | CNC(=O)[C@@H](NC(=O)c1ccc(-c2ccc(C)cc2)o1)C1CCCCC1 [N-[(1S)-1-cyclohexyl-2-(methylamino)-2-oxoethyl]-5-(4-methylphenyl)furan-2-carboxamide] | 290
14 | CNC(=O)[C@@H](NC(=O)c1ccc(-c2ccc(CNC(=O)C3CC3)cc2)o1)C1CCCCC1 [N-[(1S)-1-cyclohexyl-2-(methylamino)-2-oxoethyl]-5-(4-{[(cyclopropylcarbonyl)amino]methyl}phenyl)furan-2-carboxamide] | 423
15 | CNC(=O)[C@@H](NC(=O)c1ccc(-c2cccc(CNC(=O)c3ccoc3C)c2)o1)C1CCCCC1 [N-[(1S)-1-cyclohexyl-2-(methylamino)-2-oxoethyl]-5-[3-({[(2-methylfuran-3-yl)carbonyl]amino}methyl)phenyl]furan-2-carboxamide] | 330
16 | CNC(=O)[C@@H](NC(=O)c1ccc(-c2ccc(S(=O)(=O)NC)cc2)o1)C1CCCCC1 [N-[(1S)-1-cyclohexyl-2-(methylamino)-2-oxoethyl]-5-[4-(methylsulfamoyl)phenyl]furan-2-carboxamide] | 480
17 | CNC(=O)[C@@H](NC(=O)c1ccc(-c2ccc(SC)cc2)o1)C1CCCCC1 [N-[(1S)-1-cyclohexyl-2-(methylamino)-2-oxoethyl]-5-[4-(methylsulfanyl)phenyl]furan-2-carboxamide] | 175
18 | CNC(=O)[C@@H](NC(=O)c1ccc(-c2ccc(NS(C)(=O)=O)cc2)o1)C1CCCCC1 [N-[(1S)-1-cyclohexyl-2-(methylamino)-2-oxoethyl]-5-{4-[(methylsulfonyl)amino]phenyl}furan-2-carboxamide] | 455
19 | CNC(=O)[C@@H](NC(=O)c1ccc(-c2ccc(OCc3cn(C)cn3)cn2)o1)C1CCCCC1 [N-[(1S)-1-cyclohexyl-2-(methylamino)-2-oxoethyl]-5-{5-[(1-methyl-1H-imidazol-4-yl)methoxy]pyridin-2-yl}furan-2-carboxamide] | 119

These reach a lower IC50. Values come first.

Row | IC50 [nM] | SMILES
20 | 50 | CNC(=O)[C@@H](NC(=O)c1ccc(-c2cccc(CNC(=O)c3cc(C)c(C)s3)c2)o1)C1CCCCC1 [N-[(1S)-1-cyclohexyl-2-(methylamino)-2-oxoethyl]-5-[3-({[(4,5-dimethylthiophen-2-yl)carbonyl]amino}methyl)phenyl]furan-2-carboxamide]
21 | 32 | COC[C@H](C)NC(=O)[C@@H](NC(=O)c1ccc(-c2ccc(NC(=O)c3cccc(C)n3)cc2)o1)C1CCCCC1 [N-[4-(5-{[(1S)-1-cyclohexyl-2-{[(2S)-1-methoxypropan-2-yl]amino}-2-oxoethyl]carbamoyl}furan-2-yl)phenyl]-6-methylpyridine-2-carboxamide]
22 | 32 | CCOc1ccc(-c2ccc(C(=O)N[C@H](C(=O)NC)C3CCCCC3)o2)nc1 [N-[(1S)-1-cyclohexyl-2-(methylamino)-2-oxoethyl]-5-(5-ethoxypyridin-2-yl)furan-2-carboxamide]
23 | 30 | CNC(=O)[C@@H](NC(=O)c1ccc(-c2ccc(NC(=O)c3cc4ccccc4o3)cn2)o1)C1CCCCC1 [N-[6-(5-{[(1S)-1-cyclohexyl-2-(methylamino)-2-oxoethyl]carbamoyl}furan-2-yl)pyridin-3-yl]-1-benzofuran-2-carboxamide]
24 | 25 | CNC(=O)[C@@H](NC(=O)c1ccc(-c2ccc(-c3cnn(C)c3)cc2)o1)C1CCCCC1 [N-[(1S)-1-cyclohexyl-2-(methylamino)-2-oxoethyl]-5-[4-(1-methyl-1H-pyrazol-4-yl)phenyl]furan-2-carboxamide]
25 | 23 | Cc1cccc(C(=O)Nc2ccc(-c3ccc(C(=O)N[C@H](C(=O)NC[C@H](C)O)C4CCCCC4)o3)cc2)n1 [N-[4-(5-{[(1S)-1-cyclohexyl-2-{[(2S)-2-hydroxypropyl]amino}-2-oxoethyl]carbamoyl}furan-2-yl)phenyl]-6-methylpyridine-2-carboxamide]
26 | 22 | Cc1cccc(C(=O)Nc2ccc(-c3ccc(C(=O)N[C@H](C(=O)NC[C@@H](C)O)C4CCCCC4)o3)cc2)n1 [N-[4-(5-{[(1S)-1-cyclohexyl-2-{[(2R)-2-hydroxypropyl]amino}-2-oxoethyl]carbamoyl}furan-2-yl)phenyl]-6-methylpyridine-2-carboxamide]
27 | 21 | CNC(=O)[C@@H](NC(=O)c1ccc(-c2ccc(OCc3ccccn3)cn2)o1)C1CCCCC1 [N-[(1S)-1-cyclohexyl-2-(methylamino)-2-oxoethyl]-5-[5-(pyridin-2-ylmethoxy)pyridin-2-yl]furan-2-carboxamide]
28 | 19 | CNC(=O)[C@@H](NC(=O)c1ccc(-c2ccc(OCc3c[nH]cn3)cn2)o1)C1CCCCC1 [N-[(1S)-1-cyclohexyl-2-(methylamino)-2-oxoethyl]-5-{5-(1H-imidazol-5-ylmethoxy)pyridin-2-yl]furan-2-carboxamide]
29 | 17 | CNC(=O)[C@@H](NC(=O)c1ccc(-c2ccc(NC(=O)c3cccc(C)n3)cc2)o1)C1CCCCC1 [N-[4-(5-{[(1S)-1-cyclohexyl-2-(methylamino)-2-oxoethyl]carbamoyl}furan-2-yl)phenyl]-6-methylpyridine-2-carboxamide]
30 | 7 | CNC(=O)[C@@H](NC(=O)c1ccc(-c2ccc(NC(=O)c3cccc(C)n3)cn2)o1)C1CCCCC1 [N-[6-(5-{[(1S)-1-cyclohexyl-2-(methylamino)-2-oxoethyl]carbamoyl}furan-2-yl)pyridin-3-yl]-6-methylpyridine-2-carboxamide]
31 | 6 | CNC(=O)[C@@H](NC(=O)c1ccc(-c2ccc(OCc3ccn[nH]3)cn2)o1)C1CCCCC1 [N-[(1S)-1-cyclohexyl-2-(methylamino)-2-oxoethyl]-5-[5-(1H-pyrazol-5-ylmethoxy)pyridin-2-yl]furan-2-carboxamide]
32 | 4 | CNC(=O)[C@@H](NC(=O)c1ccc(-c2ccc(OCc3cc(C)n(C)n3)cn2)o1)C1CCCCC1 [N-[(1S)-1-cyclohexyl-2-(methylamino)-2-oxoethyl]-5-{5-[(1,5-dimethyl-1H-pyrazol-3-yl)methoxy]pyridin-2-yl}furan-2-carboxamide]
33 | 2 | CNC(=O)[C@@H](NC(=O)c1ccc(-c2ccc(OCc3cccnc3)cn2)o1)C1CCCCC1 [N-[(1S)-1-cyclohexyl-2-(methylamino)-2-oxoethyl]-5-[5-(pyridin-3-ylmethoxy)pyridin-2-yl]furan-2-carboxamide]
34 | 1 | CNC(=O)[C@@H](NC(=O)c1ccc(-c2ccc(OCc3ccncc3)cn2)o1)C1CCCCC1 [N-[(1S)-1-cyclohexyl-2-(methylamino)-2-oxoethyl]-5-[5-(pyridin-4-ylmethoxy)pyridin-2-yl]furan-2-carboxamide]

Reference: patent publication US8637550B2, “Heteroaryl diamide compounds useful as MMP-13 inhibitors” (Boehringer Ingelheim International GmbH, priority 2008, dated 2014)
